In the supplement of paper PMC8372320:

Assay: photocatalytic hydrogen evolution rate (per 5 mg catalyst); higher = more photocatalytic H2 evolution; extreme values may be limits of the assay
Details: catalyst mass (mg): 5; Pt cocatalyst (wt%): 3; sacrificial medium: triethylamine/methanol/water 1:1:1
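Also: aromatic molecules in triethylamine/methanol/water with Pt photoreduced in situ, irradiated 3 h under a 1 sun AM 1.5G solar simulator (350–1000 nm), H2 quantified by headspace gas chromatography; listed molecule itself used as the photocatalyst at 5 mg per vial.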

Brc1ccc2c(c1)sc1cc(Br)ccc12
photocatalytic hydrogen evolution rate: 0 µmol/h

c1ccc(N(c2ccccc2)c2ccc(N(c3ccccc3)c3ccccc3)cc2)cc1
photocatalytic hydrogen evolution rate: 0 µmol/h

Cc1cc(N)ccc1C#N
photocatalytic hydrogen evolution rate: 0 µmol/h

O=Cc1ccc(-c2cc(-c3ccc(C=O)cc3)c3ccc4c(-c5ccc(C=O)cc5)cc(-c5ccc(C=O)cc5)c5ccc2c3c54)cc1
photocatalytic hydrogen evolution rate: 3.19 µmol/h

O=C1c2c(O)cccc2Cc2cccc(O)c21
photocatalytic hydrogen evolution rate: 0 µmol/h

N#Cc1ccc(C#N)nc1
photocatalytic hydrogen evolution rate: 0.0617 µmol/h

CC1(C)CC2(CC(C)(C)c3cc(O)c(O)cc32)c2cc(O)c(O)cc21
photocatalytic hydrogen evolution rate: 0 µmol/h

Fc1c(F)c(Br)c(F)c(F)c1Br
photocatalytic hydrogen evolution rate: 0 µmol/h

O=Cc1sc(C=O)c(Br)c1Br
photocatalytic hydrogen evolution rate: 0.167 µmol/h

N#Cc1cccc(-c2cccc(C=O)c2)c1
photocatalytic hydrogen evolution rate: 1.09 µmol/h

Brc1ccc(-c2ccc(Br)cn2)nc1
photocatalytic hydrogen evolution rate: 0.0242 µmol/h

BrCc1ccc(-c2ccc(CBr)cc2)cc1
photocatalytic hydrogen evolution rate: 0 µmol/h

Brc1ccc(Br)c2nonc12
photocatalytic hydrogen evolution rate: 0 µmol/h

O=C(O)c1c(F)c(F)c(C(=O)O)c(F)c1F
photocatalytic hydrogen evolution rate: 0 µmol/h

Nc1cc(C(=O)O)cc(C(=O)O)c1
photocatalytic hydrogen evolution rate: 0 µmol/h

O=C1CCc2cccc(O)c21
photocatalytic hydrogen evolution rate: 2.68 µmol/h

N#Cc1cscc1C#N
photocatalytic hydrogen evolution rate: 0 µmol/h

Brc1ccc2c(c1)[nH]c1cc(Br)ccc12
photocatalytic hydrogen evolution rate: 0 µmol/h

CC1(C)OB(c2cc(B3OC(C)(C)C(C)(C)O3)cc(B3OC(C)(C)C(C)(C)O3)c2)OC1(C)C
photocatalytic hydrogen evolution rate: 0.0124 µmol/h

N#Cc1ccccc1CBr
photocatalytic hydrogen evolution rate: 0 µmol/h

O=C1c2cc3ccccc3cc2C(=O)c2cc3ccccc3cc21
photocatalytic hydrogen evolution rate: 6.86 µmol/h

Nc1cc(Br)c(Br)cc1N
photocatalytic hydrogen evolution rate: 0 µmol/h

c1ccc2c(c1)ccc1ccccc12
photocatalytic hydrogen evolution rate: 0.057 µmol/h

COC(=O)c1cccc2cc3cccc(C(=O)OC)c3cc12
photocatalytic hydrogen evolution rate: 0.0378 µmol/h

Nc1ccc(N)c2c1C(=O)c1c(N)ccc(N)c1C2=O
photocatalytic hydrogen evolution rate: 0 µmol/h

CC(O)c1ccc2ccccc2c1 (stereo unspecified)
photocatalytic hydrogen evolution rate: 0 µmol/h

COC(=O)c1cccc(C(=O)OC)n1
photocatalytic hydrogen evolution rate: 0.0266 µmol/h

Cc1cc(C)c(Nc2ccc(Nc3c(C)cc(C)cc3C)c3c2C(=O)c2ccccc2C3=O)c(C)c1
photocatalytic hydrogen evolution rate: 0.331 µmol/h

N#Cc1c(F)c(F)nc(F)c1F
photocatalytic hydrogen evolution rate: 0.00201 µmol/h

COC(=O)c1ccc(C(=O)OC)cc1
photocatalytic hydrogen evolution rate: 0.0838 µmol/h

c1ccc(-c2c3ccccc3c(-c3ccccc3)c3c(-c4ccccc4)c4ccccc4c(-c4ccccc4)c23)cc1
photocatalytic hydrogen evolution rate: 0.0539 µmol/h

COC(=O)c1ccc2cc(Br)ccc2c1
photocatalytic hydrogen evolution rate: 0 µmol/h

CCOC(=O)c1ccc(C(=O)OCC)cc1
photocatalytic hydrogen evolution rate: 0 µmol/h

O=Cc1ccccc1C=O
photocatalytic hydrogen evolution rate: 0.491 µmol/h

Cc1c(C)c(Br)c(C)c(C)c1Br
photocatalytic hydrogen evolution rate: 0 µmol/h

N#Cc1cc(Br)ccc1Br
photocatalytic hydrogen evolution rate: 0 µmol/h

N#Cc1cc(Br)ccn1
photocatalytic hydrogen evolution rate: 0 µmol/h

COc1ccc(N2C(=O)c3ccc4c5ccc6c7c(ccc(c8ccc(c3c48)C2=O)c75)C(=O)N(c2ccc(OC)cc2)C6=O)cc1
photocatalytic hydrogen evolution rate: 0 µmol/h

COc1cc(C=O)ccc1O
photocatalytic hydrogen evolution rate: 0.0183 µmol/h

Fc1cc(Br)c(F)cc1Br
photocatalytic hydrogen evolution rate: 0 µmol/h

CCCCCCCCCCCCC1(CCCCCCCCCCCC)c2cc(B(O)O)ccc2-c2ccc(B(O)O)cc21
photocatalytic hydrogen evolution rate: 0.132 µmol/h

Cc1cc(Br)cc(Br)c1
photocatalytic hydrogen evolution rate: 0 µmol/h

O=C(O)Cc1ccc(-c2ccccc2)cc1
photocatalytic hydrogen evolution rate: 0.0393 µmol/h

N#CCc1ccc(CC#N)cc1
photocatalytic hydrogen evolution rate: 0 µmol/h

O=Cc1ccc(N2CCS(=O)(=O)CC2)cc1
photocatalytic hydrogen evolution rate: 2.73 µmol/h

N#CCc1ccccc1C#N
photocatalytic hydrogen evolution rate: 0 µmol/h

O=Cc1ccc(N(c2ccccc2)c2ccc(-c3ccc(N(c4ccccc4)c4ccc(C=O)cc4)cc3)cc2)cc1
photocatalytic hydrogen evolution rate: 0 µmol/h

Nc1ccc(N)cc1
photocatalytic hydrogen evolution rate: 0 µmol/h

N#Cc1c[nH]c2ccc(Br)cc12
photocatalytic hydrogen evolution rate: 0.015 µmol/h

c1ccc2c(c1)c1ccccc1n2-c1ccc(N(c2ccc(-n3c4ccccc4c4ccccc43)cc2)c2ccc(-n3c4ccccc4c4ccccc43)cc2)cc1
photocatalytic hydrogen evolution rate: 0 µmol/h

O=S1(=O)c2ccccc2-c2ccccc21
photocatalytic hydrogen evolution rate: 0.222 µmol/h

CC(C)(C)c1cc(C=O)cc(C(C)(C)C)c1O
photocatalytic hydrogen evolution rate: 0 µmol/h

N#Cc1cc(Br)c[nH]c1=O
photocatalytic hydrogen evolution rate: 1.99 µmol/h

N#Cc1cc(Br)c(N)c(Br)c1
photocatalytic hydrogen evolution rate: 0 µmol/h

Fc1c(F)c(Br)c2nsnc2c1Br
photocatalytic hydrogen evolution rate: 2.63 µmol/h

O=C(O)c1c(C(=O)O)c(C(=O)O)c(C(=O)O)c(C(=O)O)c1C(=O)O
photocatalytic hydrogen evolution rate: 0 µmol/h

O=c1oc(=O)c2cc3c(=O)oc(=O)c3cc12
photocatalytic hydrogen evolution rate: 0 µmol/h

N#Cc1ccncc1Br
photocatalytic hydrogen evolution rate: 0 µmol/h

Brc1cccc(Br)n1
photocatalytic hydrogen evolution rate: 0 µmol/h

N#Cc1cc(C#N)ncn1
photocatalytic hydrogen evolution rate: 0 µmol/h

O=C1CCc2ccccc21
photocatalytic hydrogen evolution rate: 0.101 µmol/h

Brc1c2ccccc2c(-c2c3ccccc3c(Br)c3ccccc23)c2ccccc12
photocatalytic hydrogen evolution rate: 1.44 µmol/h

O=C1c2ccccc2-c2ccccc21
photocatalytic hydrogen evolution rate: 2.56 µmol/h

C#Cc1ccc(C#N)cc1
photocatalytic hydrogen evolution rate: 0 µmol/h

OB(O)c1ccc(Br)nc1
photocatalytic hydrogen evolution rate: 0 µmol/h

O=C1CCC(c2ccccc2)CC1
photocatalytic hydrogen evolution rate: 0 µmol/h

N#CC1=C(C#N)SC(C#N)=C(C#N)S1
photocatalytic hydrogen evolution rate: 0 µmol/h

C1=CSC(=C2SC=CS2)S1
photocatalytic hydrogen evolution rate: 0 µmol/h

Nc1c(F)c(F)c(-c2c(F)c(F)c(N)c(F)c2F)c(F)c1F
photocatalytic hydrogen evolution rate: 0 µmol/h

N#Cc1c2ccccc2c(C#N)c2ccccc12
photocatalytic hydrogen evolution rate: 0.0714 µmol/h

O=Cc1ccc(O)c(F)c1
photocatalytic hydrogen evolution rate: 0.0382 µmol/h

COc1ccc(I)cc1
photocatalytic hydrogen evolution rate: 0 µmol/h

N#Cc1cccc(C=O)c1
photocatalytic hydrogen evolution rate: 0.204 µmol/h

CC(=O)c1c(O)cccc1O
photocatalytic hydrogen evolution rate: 0 µmol/h

Nc1ccc(C(=O)O)cc1
photocatalytic hydrogen evolution rate: 0.059 µmol/h

N#Cc1ccc(-c2ccc(C#N)nc2)cn1
photocatalytic hydrogen evolution rate: 0.0601 µmol/h

O=C(O)c1ccc(-c2ccc(C(=O)O)cc2)cc1
photocatalytic hydrogen evolution rate: 0.0704 µmol/h

O=C(c1ccccc1)c1ccccc1
photocatalytic hydrogen evolution rate: 3.25 µmol/h

Cc1cc(N)ccc1-c1ccc(N)cc1C
photocatalytic hydrogen evolution rate: 0.055 µmol/h

O=Cc1cc(Br)cc(Br)c1
photocatalytic hydrogen evolution rate: 0.234 µmol/h

O=Cc1cc(C=O)c(O)c(C=O)c1
photocatalytic hydrogen evolution rate: 10.9 µmol/h

CCc1cc(C#N)ccc1C#N
photocatalytic hydrogen evolution rate: 0 µmol/h

Brc1ncc(Br)n2ccnc12
photocatalytic hydrogen evolution rate: 0.00675 µmol/h

O=Cc1cccc(C=O)c1
photocatalytic hydrogen evolution rate: 1.65 µmol/h

C#Cc1ccc(C(=O)O)cc1
photocatalytic hydrogen evolution rate: 0 µmol/h

Oc1c(Br)cc(Br)c(O)c1Br
photocatalytic hydrogen evolution rate: 0 µmol/h

Brc1cc(Br)cc(-c2ccccc2)c1
photocatalytic hydrogen evolution rate: 0 µmol/h

O=Cc1ccc(C=O)c([N+](=O)[O-])c1
photocatalytic hydrogen evolution rate: 0 µmol/h

O=C1c2cccc(O)c2C(=O)c2cccc(O)c21
photocatalytic hydrogen evolution rate: 0 µmol/h

N#Cc1ccc(C#N)c(OC(F)(F)F)c1
photocatalytic hydrogen evolution rate: 0.153 µmol/h

N#Cc1ccc(F)c(N)c1
photocatalytic hydrogen evolution rate: 0 µmol/h

N#Cc1nc(N)c(N)nc1C#N
photocatalytic hydrogen evolution rate: 0 µmol/h

O=Cc1cccc2cccnc12
photocatalytic hydrogen evolution rate: 1.45 µmol/h

c1ccc(N=C(Nc2ccccc2)Nc2ccccc2)cc1
photocatalytic hydrogen evolution rate: 0 µmol/h

c1ccc(N(c2ccccc2)c2cc(N(c3ccccc3)c3ccccc3)cc(N(c3ccccc3)c3ccccc3)c2)cc1
photocatalytic hydrogen evolution rate: 0 µmol/h

N#Cc1c(F)c(F)c(F)c(F)c1F
photocatalytic hydrogen evolution rate: 0.0353 µmol/h

OB(O)c1cc(F)c(B(O)O)cc1F
photocatalytic hydrogen evolution rate: 0 µmol/h

O=Cc1ccc(N(c2ccccc2)c2ccccc2)cc1
photocatalytic hydrogen evolution rate: 0.317 µmol/h

COc1cc(C#N)c(C#N)cc1OC
photocatalytic hydrogen evolution rate: 0 µmol/h

N#Cc1ccc(-c2ccccc2C#N)cc1
photocatalytic hydrogen evolution rate: 0 µmol/h

Brc1ccc(-c2cc(-c3ccc(Br)cc3)cc(-c3ccc(Br)cc3)c2)cc1
photocatalytic hydrogen evolution rate: 0 µmol/h

C1=Cc2cccc3cccc1c23
photocatalytic hydrogen evolution rate: 0 µmol/h

O=Cc1ccc(O)cc1O
photocatalytic hydrogen evolution rate: 0.896 µmol/h

N#Cc1ccc(CCc2ccc(C#N)cc2)cc1
photocatalytic hydrogen evolution rate: 0 µmol/h

CC1(C)OB(c2c3ccccc3c(B3OC(C)(C)C(C)(C)O3)c3ccccc23)OC1(C)C
photocatalytic hydrogen evolution rate: 0 µmol/h

Oc1c(Br)cc(Br)cc1Br
photocatalytic hydrogen evolution rate: 0.0139 µmol/h
